Columns and labels:
[1] = Drug excretion rate in rat urine at 3 mg/kg, po measured up to 4 hrs by HPLC analysis; format: ADME, organism-based; details: read-out: Drug excretion
[2] = target: T1, Solute carrier family 22 member 12 (Homo sapiens, UniProt Q96S37); experiment: Inhibition of human URAT1 expressed in Xenopus laevis oocytes mediated [14C]uric acid uptake at 0.1 uM measured after 60 mins by liquid scintillation counter method relative to control; format: cell-based; details: 1 h
T1 sequence (Q96S37 whole entry): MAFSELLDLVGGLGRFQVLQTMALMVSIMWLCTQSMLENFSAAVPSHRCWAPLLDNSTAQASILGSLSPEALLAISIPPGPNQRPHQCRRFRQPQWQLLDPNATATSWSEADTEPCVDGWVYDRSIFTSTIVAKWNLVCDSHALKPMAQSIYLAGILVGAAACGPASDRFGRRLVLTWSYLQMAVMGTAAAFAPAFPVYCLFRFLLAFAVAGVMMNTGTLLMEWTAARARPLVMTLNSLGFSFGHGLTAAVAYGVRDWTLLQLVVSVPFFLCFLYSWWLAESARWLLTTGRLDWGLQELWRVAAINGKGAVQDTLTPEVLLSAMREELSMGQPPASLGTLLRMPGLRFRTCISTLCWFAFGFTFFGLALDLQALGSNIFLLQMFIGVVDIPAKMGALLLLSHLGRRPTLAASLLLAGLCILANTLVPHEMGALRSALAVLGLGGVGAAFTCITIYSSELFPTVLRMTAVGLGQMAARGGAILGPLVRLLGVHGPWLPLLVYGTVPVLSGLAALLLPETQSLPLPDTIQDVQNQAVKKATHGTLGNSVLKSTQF

[3] = target: T1, Solute carrier family 22 member 12; experiment: Inhibition of URAT1 in human RPTEC assessed as inhibition of [14C]uric acid uptake at 10 uM preincubated for 15 mins followed by [14C]uric acid addition and incubated under shaking condition for 2 hrs by scintillation counter method; format: tissue-based
[4] = target: T1, Solute carrier family 22 member 12; experiment: Inhibition of URAT1 in human RPTEC assessed as inhibition of [14C]uric acid uptake preincubated for 15 mins followed by [14C]uric acid addition and incubated under shaking condition for 2 hrs by scintillation counter method; format: tissue-based
[5] = Cmax in rat at 3 mg/kg, po by HPLC analysis; format: ADME, organism-based; design: route oral, dose 3 mg/kg; details: in vivo
[6] = tested on: mitochondrial respiration; experiment: Hepatotoxicity in rat liver mitochondria assessed as inhibition of mitochondrial respiration by measuring mitochondrial respiratory control ratio of oxygen consumption in presence of substrate and ADP to rate after complete conversion of ADP to ATP by Clark-type oxygen electrode method; format: toxicity
[7] = target: Cytochrome P450 2C9 (Homo sapiens, UniProt P11712); experiment: Inhibition of CYP2C9 (unknown origin); format: ADME
[8] = tested on: mitochondrial respiration; experiment: Hepatotoxicity in rat liver mitochondria assessed as inhibition of mitochondrial respiration by measuring mitochondrial respiratory control ratio of oxygen consumption in presence of substrate and ADP to rate after complete conversion of ADP to ATP at 100 uM by Clark-type oxygen electrode method; format: toxicity
[9] = Acid dissociation constant, pKa of the compound; format: physicochemical
[10] = Uricosuric effect in Cebus monkey assessed as fractional plasma urate excretion at 30 mg/kg, po measured up to 4 hrs; format: functional; details: time hrs <=4
[11] = AUC (0 to 24 hrs) in Cebus monkey at 30 mg/kg, po; format: ADME, organism-based; design: route oral, dose 30 mg/kg, time <=24; details: in vivo
[12] = Drug excretion in human urine assessed as excretion rate of sulfate metabolite of phenols measured for 72 hrs by mass balance test; format: ADME
[13] = Oral bioavailability in rat at 0.3 mg/kg; format: ADME, organism-based; details: in vivo
[14] = Uricosuric effect in Cebus monkey assessed as fractional plasma urate excretion at 5 mg/kg, po measured up to 4 hrs; format: functional; details: time hrs <=4
[15] = AUC (0 to infinity) in rat at 0.3 mg/kg, iv; format: ADME, organism-based; design: time infinity, route intravenous, dose 0.3 mg/kg; details: in vivo
[16] = AUC (0 to infinity) in rat at 0.3 mg/kg, po; format: ADME, organism-based; design: time infinity, route oral, dose 0.3 mg/kg; details: in vivo
[17] = Drug excretion in human urine assessed as excretion rate of glucuronide metabolite of phenols measured for 72 hrs by mass balance test; format: ADME, tissue-based
[18] = AUC (0 to 24 hrs) in Cebus monkey at 5 mg/kg, po; format: ADME, organism-based; design: route oral, dose 5 mg/kg, time <=24; details: in vivo
[19] = target: T1, Solute carrier family 22 member 12; experiment: Inhibition of human URAT1 expressed in Xenopus laevis oocytes assessed as inhibition of [14C]uric acid uptake measured after 60 mins by liquid scintillation counter method
[20] = Cmax in rat at 0.3 mg/kg, po; format: ADME, organism-based; design: route oral, dose 0.3 mg/kg; details: in vivo
[21] = Cmax in rat at 0.3 mg/kg, iv; format: ADME, organism-based; design: route intravenous, dose 0.3 mg/kg; details: in vivo

Chain of Cytochrome P450 2C9 (P11712 whole entry): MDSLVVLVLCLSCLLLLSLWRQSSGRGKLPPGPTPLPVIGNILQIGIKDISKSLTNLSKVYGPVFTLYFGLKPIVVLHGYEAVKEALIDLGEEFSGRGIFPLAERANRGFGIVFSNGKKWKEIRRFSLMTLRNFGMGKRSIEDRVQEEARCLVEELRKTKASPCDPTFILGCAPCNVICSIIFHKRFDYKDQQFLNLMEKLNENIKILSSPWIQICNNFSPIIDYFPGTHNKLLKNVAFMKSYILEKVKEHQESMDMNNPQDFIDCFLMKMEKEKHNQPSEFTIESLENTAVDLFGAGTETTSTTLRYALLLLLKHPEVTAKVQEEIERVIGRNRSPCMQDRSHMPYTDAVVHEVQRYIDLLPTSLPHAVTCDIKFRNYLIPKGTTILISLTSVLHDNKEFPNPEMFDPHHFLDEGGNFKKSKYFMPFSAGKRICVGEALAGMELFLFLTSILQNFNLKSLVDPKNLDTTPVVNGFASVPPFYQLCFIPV

Row | dose excreted at 4 h [1] [%] | inhibition at 10 µM [3] [%] | IC50 [4] [µM] | Cmax [5] [ng/mL] | Structure (SMILES) | IC50 [6] [µM] | inhibition at 100 µM [8] [%] | also measured
1 | 0.6 | 42 | 19.2 | 3810 | N#Cc1cc(C(=O)N2CS(=O)(=O)c3ccccc32)cc(C2CC2)c1O | 59 | – | inhibition at 0.1 µM [2]: 30%; IC50 [7]: 57 µM
2 | 0.1 | 49 | 13.1 | 3150 | N#Cc1cc(C(=O)N2CSc3ccccc32)cc(C(F)(F)F)c1O | 55 | – | inhibition at 0.1 µM [2]: 71%
3 | – | 38.2 | 14.7 | – | N#Cc1cc(C(=O)N2CCc3ccccc32)cc(Cl)c1O | 31 | – | –
4 | 0.1 | – | 2.6 | 6410 | O=C(c1cc(Cl)c(O)c(C(F)(F)F)c1)N1CS(=O)(=O)c2ccccc21 | 18 | – | –
5 | 12.4 | – | 3.2 | 1580 | C#Cc1cc(C(=O)N2CS(=O)(=O)c3ccccc32)cc(C#N)c1O | – | 13 | –
6 | – | 32.4 | 31.6 | – | CC(C)(C)c1cc(C(=O)N2CCc3ccccc32)cc(C#N)c1O | 6.6 | – | –
7 | – | – | > 100 | – | N#Cc1cc(C(=O)N2CS(=O)(=O)c3ccccc32)cc(C(F)(F)F)c1O | – | 12 | –
8 | 9.4 | 57 | 7.1 | 1080 | CSc1cc(C(=O)N2CS(=O)(=O)c3ccccc32)cc(C#N)c1O | – | 21 | inhibition at 0.1 µM [2]: 44%
9 | – | 26.3 | 83.9 | – | N#Cc1cc(C(=O)N2CCc3ccccc32)cc(C#N)c1O | – | 47 | –
10 | 0.2 | – | 5.7 | 4640 | CSc1cc(C(=O)N2CS(=O)(=O)c3ccccc32)cc(Cl)c1O | 59 | – | –
11 | 0 | – | 17.8 | 3990 | COc1cc(C(=O)N2CS(=O)(=O)c3ccccc32)cc(C(F)(F)F)c1O | – | 47 | –
12 | 5.9 | 67.5 | 2.5 | 890 | N#Cc1cc(C(=O)N2CCc3ccccc32)ccc1O | – | 43 | –
13 | 4.3 | – | 33.9 | 7700 | O=C(c1cc(F)c(O)c(Cl)c1)N1CS(=O)(=O)c2ccccc21 | 63 | – | –
14 | – | 52.1 | 10.8 | – | Cc1c(C)n(C(=O)c2ccc(O)c(C#N)c2)c2ccccc12 | 3.6 | – | –
15 | 0.1 | – | 83.3 | 4460 | CC(C)c1cc(C(=O)N2CS(=O)(=O)c3ccccc32)cc(C#N)c1O | 12 | – | –
16 | – | 21.7 | > 100 | – | COc1cc(C(=O)N2CCc3ccccc32)cc(C#N)c1O | – | -10 | –
17 | – | 24.2 | > 100 | – | CSc1cc(C(=O)N2CCc3ccccc32)cc(C#N)c1O | 40 | – | –
18 | 23 | 25 | > 100 | 1350 | N#Cc1cc(C(=O)N2CS(=O)(=O)c3ccccc32)cc(Cl)c1O | – | 20 | inhibition at 0.1 µM [2]: 29%
19 | 1.7 | 32 | > 100 | 4240 | CCc1cc(C(=O)N2CS(=O)(=O)c3ccccc32)cc(C#N)c1O | 37 | – | inhibition at 0.1 µM [2]: 36%
20 | 0.1 | – | 4.3 | 1060 | COc1cc(C(=O)N2CS(=O)(=O)c3ccccc32)cc(Cl)c1O | – | 49 | –
21 | 0.35 | 67.8 | 8.8 | 1360 | N#Cc1cc(C(=O)N2CCc3ccccc32)cc(C2CC2)c1O | 24 | – | –
22 | 0.02 | 65.1 | 5.3 | 5950 | N#Cc1cc(C(=O)N2CCc3ccccc32)cc(I)c1O | 53 | – | –
23 | – | 30 | > 100 | – | N#Cc1cc(C(=O)N2CCc3ccccc32)cc(C(F)(F)F)c1O | – | 40 | –
24 | 1.1 | 81 | 6.8 | 9140 | O=C(c1cc(Cl)c(O)c(Cl)c1)N1CS(=O)(=O)c2ccccc21 [DOTINURAD] | 27 | – | Drug excretion [12]: 20%; inhibition at 0.1 µM [2]: 78%; bioavailability [13]: 86.8%; Activity [14]: 16.5%; AUC(0-inf) [15]: 6620 ng·h/mL; AUC(0-inf) [16]: 5740 ng·h/mL; Drug excretion [17]: 44.3%; AUC(0-t) [18]: 109000 ng·h/mL; IC50 [19]: 0.0372 µM; Cmax [20]: 1090 ng/mL; Cmax [21]: 2400 ng/mL
25 | – | – | – | – | O=c1[nH]c(=O)c2[nH]c(=O)[nH]c2[nH]1 [URIC ACID] | – | – | pKa [9]: 5.75

Row | Structure (SMILES) | dose excreted at 4 h [1] [%] | inhibition at 10 µM [3] [%] | IC50 [4] [µM] | Cmax [5] [ng/mL] | IC50 [6] [µM] | inhibition at 100 µM [8] [%] | also measured
26 | CCc1oc2ccccc2c1C(=O)c1cc(Br)c(O)c(Br)c1 [BENZBROMARONE] | 0 | 51 | – | 4420 | 3.1 | – | pKa [9]: 5.17; inhibition at 0.1 µM [2]: 37%; Activity [10]: 11.5%; AUC(0-t) [11]: 95200 ng·h/mL
